Assay results taken from ChEMBL document CHEMBL1932945, “One-pot regioselective synthesis of tetrahydroindazolones and evaluation of their antiproliferative and Src kinase inhibitory activities” (Bioorg Med Chem Lett, 2012).
Activity calls are given as the source filed them. No cut-off for these calls is given here.

How the values were obtained:
[1] = target: Proto-oncogene tyrosine-protein kinase Src (Homo sapiens, UniProt P12931); assay: Inhibition of His6-tagged c-Src kinase domain using AEEEIYGEFEAKKKK as substrate pre-incubated for 10 mins before substrate addition measured after 30 mins by Transcreener ADP2 FI Assay
[2] = test system: HT-29; assay: Antiproliferative activity against human HT-29 cells overexpressing c-Src at 50 uM after 72 hrs by Cell titer assay; assay type: functional; conditions: for inhibition at 50 µM: HT-29, 72 h
[3] = test system: SK-OV-3; assay: Antiproliferative activity against human SKOV3 cells overexpressing c-Src at 50 uM after 72 hrs by Cell titer assay; assay type: functional; conditions: for inhibition at 50 µM: SK-OV-3, 72 h

Sequence of Proto-oncogene tyrosine-protein kinase Src (P12931 2-536 limits assumed): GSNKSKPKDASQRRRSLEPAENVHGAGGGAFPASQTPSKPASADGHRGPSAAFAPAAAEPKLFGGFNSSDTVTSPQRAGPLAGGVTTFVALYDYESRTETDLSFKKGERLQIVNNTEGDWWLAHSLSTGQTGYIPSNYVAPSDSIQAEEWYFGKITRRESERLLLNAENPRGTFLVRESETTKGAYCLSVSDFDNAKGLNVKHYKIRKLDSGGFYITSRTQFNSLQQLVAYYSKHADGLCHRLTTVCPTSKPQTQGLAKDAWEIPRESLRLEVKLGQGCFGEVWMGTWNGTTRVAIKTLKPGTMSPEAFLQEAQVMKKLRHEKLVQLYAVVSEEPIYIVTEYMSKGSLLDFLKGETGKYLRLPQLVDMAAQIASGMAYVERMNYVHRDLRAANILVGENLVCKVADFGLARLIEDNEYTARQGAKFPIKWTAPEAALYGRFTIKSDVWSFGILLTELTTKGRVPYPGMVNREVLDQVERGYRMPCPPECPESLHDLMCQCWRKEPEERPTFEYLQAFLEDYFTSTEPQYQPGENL

`Cc1ccc(-n2nc3c(c2-c2ccc(Cl)c(Cl)c2)C(=O)CC(C)(C)C3)cc1` was tested, and the IC50 [1] was over 150 µM, the inhibition [2] was “Active” and the inhibition [3] was “Active”.
For `COc1ccc(-n2nc3c(c2-c2ccc(Cl)c(Cl)c2)C(=O)CC(C)(C)C3)cc1O`, the IC50 [1] was over 150 µM, the inhibition [2] was “Active” and the inhibition [3] was “Active”.
Work on `CC1(C)CC(=O)c2c(nn(-c3cccs3)c2C2CCCCC2)C1` yielded an IC50 [1] of 77.3 µM, an inhibition at 50 µM [2] of 48% and an inhibition at 50 µM [3] of 49%.
`Cc1ccc(-n2nc3c(c2-c2ccc(Cl)c(Cl)c2)C(=O)CCC3)cc1` was tested, and the IC50 [1] was over 150 µM, the inhibition at 50 µM [2] was 48% and the inhibition at 50 µM [3] was 49%.
`CC1(C)CC(=O)c2c(nn(-c3ccc([N+](=O)[O-])cc3)c2C2CCCCC2)C1` was tested, and the IC50 [1] was over 150 µM, the inhibition [2] was “Active” and the inhibition [3] was “Active”.
With `Cc1ccc(-c2c3c(nn2-c2ccc[nH]2)CC(C)(C)CC3=O)cc1Cl` the IC50 [1] was over 150 µM, the inhibition [2] was “Active” and the inhibition [3] was “Active”.
`COc1ccc(-n2nc3c(c2-c2ccc(C(C)(C)C)cc2)C(=O)CC(C)(C)C3)cc1` was tested, and the IC50 [1] was 35.1 µM, the inhibition [2] was “Active” and the inhibition [3] was “Active”.
For `Cc1ccc(-n2nc3c(c2-c2ccc(C(C)(C)C)cc2)C(=O)CC(C)(C)C3)cc1`, the IC50 [1] was over 150 µM, the inhibition [2] was “Active” and the inhibition [3] was “Active”.
For `COc1ccc(-n2nc3c(c2-c2ccc(Cl)c(Cl)c2)C(=O)CCC3)cc1O`, the IC50 [1] was over 150 µM, the inhibition [2] was “Active” and the inhibition [3] was “Active”.
With `CC1(C)OC(=O)c2c(nn(-c3ccc(Cl)cc3)c2C2CCCCC2)O1` the IC50 [1] was over 150 µM, the inhibition [2] was “Active” and the inhibition [3] was “Active”.
With `CC1(C)CC(=O)c2c(nn(-c3cccs3)c2-c2ccc(Cl)c(Cl)c2)C1` the IC50 [1] was over 150 µM, the inhibition [2] was “Active” and the inhibition [3] was “Active”.
For `O=C1CCCc2nn(-c3ccc(O)cc3)c(-c3ccc(Cl)c(Cl)c3)c21`, the IC50 [1] was over 150 µM, the inhibition [2] was “Active” and the inhibition [3] was “Active”.
In the case of `COc1ccc(-n2nc3c(c2-c2ccc(Cl)c(Cl)c2)C(=O)CC(C)(C)C3)cc1`, the IC50 [1] is reported as 94.1 µM, the inhibition [2] is reported as “Active” and the inhibition [3] is reported as “Active”.
`CC1(C)OC(=O)c2c(nn(-c3ccc(Cl)cc3)c2-c2ccc(C(C)(C)C)cc2)O1` was tested, and the IC50 [1] was over 150 µM, the inhibition [2] was “Active” and the inhibition [3] was “Active”.
In the case of `CC1(C)CC(=O)c2c(nn(-c3ccc(Cl)c(Cl)c3)c2-c2ccc(Cl)cc2)C1`, the IC50 [1] is reported as 86 µM, the inhibition [2] is reported as “Active” and the inhibition [3] is reported as “Active”.
In the case of `CC1(C)CC(=O)c2c(nn(-c3ccc([N+](=O)[O-])cc3)c2-c2ccc(Cl)c(Cl)c2)C1`, the IC50 [1] is reported as over 150 µM, the inhibition [2] is reported as “Active” and the inhibition [3] is reported as “Active”.
`Cc1ccc(-c2c3c(nn2-c2ccncc2)CC(C)(C)CC3=O)cc1Cl` was tested, and the IC50 [1] was 74.3 µM, the inhibition at 50 µM [2] was 65% and the inhibition [3] was “Active”.
For `Cc1ccc(-c2c3c(nn2-c2ccc(Cl)cc2)CC(C)(C)CC3=O)cc1Cl`, the IC50 [1] was 132 µM, the inhibition [2] was “Active” and the inhibition [3] was “Active”.
`COc1ccc(-n2nc3c(c2-c2ccc(C(C)(C)C)cc2)C(=O)CC(C)(C)C3)cc1OC` was tested, and the IC50 [1] was over 150 µM, the inhibition at 50 µM [2] was 65% and the inhibition [3] was “Active”.
`COc1ccc(-n2nc3c(c2-c2ccc(Cl)c(Cl)c2)C(=O)CCC3)cc1` was tested, and the IC50 [1] was over 150 µM, the inhibition [2] was “Active” and the inhibition [3] was “Active”.
With `CC1(C)CC(=O)c2c(nn(-c3ccc(O)cc3)c2-c2ccc(Cl)c(Cl)c2)C1` the IC50 [1] was 66.6 µM, the inhibition [2] was “Active” and the inhibition [3] was “Active”.
`O=C1CCCc2nn(-c3ccccc3F)c(-c3ccc(Cl)c(Cl)c3)c21` was tested, and the IC50 [1] was over 150 µM, the inhibition [2] was “Active” and the inhibition [3] was “Active”.
In the case of `O=C1CCCc2nn(-c3ccccc3)c(-c3ccc(Cl)c(Cl)c3)c21`, the IC50 [1] is reported as 65.8 µM, the inhibition at 50 µM [2] is reported as 65% and the inhibition [3] is reported as “Active”.
In the case of `CC1(C)CC(=O)c2c(nn(-c3ccc(Cl)cc3)c2-c2ccc(C(C)(C)C)cc2)C1`, the IC50 [1] is reported as over 150 µM, the inhibition [2] is reported as “Active” and the inhibition [3] is reported as “Active”.
For `COc1cccc2c1C(=O)c1c(O)c3c(c(O)c1C2=O)C[C@@](O)(C(=O)CO)C[C@@H]3O[C@H]1C[C@H](N)[C@H](O)[C@H](C)O1`, the inhibition [2] was “Active” and the inhibition [3] was “Active”.
For `CC1(C)CC(=O)c2c(nn(-c3ccccc3)c2-c2ccc(Cl)c(Cl)c2)C1`, the IC50 [1] was 62.1 µM, the inhibition [2] was “Active” and the inhibition [3] was “Active”.
With `O=C1CCCc2nn(-c3cccs3)c(-c3ccc(Cl)c(Cl)c3)c21` the IC50 [1] was over 150 µM, the inhibition at 50 µM [2] was 62% and the inhibition at 50 µM [3] was 58%.
With `COc1cccc(-n2nc3c(c2-c2ccc(C)c(Cl)c2)C(=O)CCC3)c1` the IC50 [1] was 82.7 µM, the inhibition [2] was “Active” and the inhibition [3] was “Active”.
For `Cc1ccc(-n2nc3c(c2C2CCCCC2)C(=O)CCC3)cc1`, the IC50 [1] was 57.7 µM, the inhibition [2] was “Active” and the inhibition [3] was “Active”.
For `O=C1CCCc2nn(-c3ccc([N+](=O)[O-])cc3)c(-c3ccc(Cl)c(Cl)c3)c21`, the IC50 [1] was over 150 µM, the inhibition [2] was “Active” and the inhibition [3] was “Active”.
`O=C1CCCc2nn(-c3cccc(Cl)c3)c(C3CCCCC3)c21` was tested, and the IC50 [1] was 58.4 µM, the inhibition [2] was “Active” and the inhibition [3] was “Active”.
In the case of `CC1(C)CC(=O)c2c(nn(-c3ccc[nH]3)c2-c2ccc(Cl)c(Cl)c2)C1`, the IC50 [1] is reported as over 150 µM, the inhibition [2] is reported as “Active” and the inhibition [3] is reported as “Active”.
With `O=C1CCCc2nn(-c3ccc(Cl)cc3)c(-c3ccc(Cl)c(Cl)c3)c21` the IC50 [1] was 81 µM, the inhibition [2] was “Active” and the inhibition [3] was “Active”.
